# Experimental data published in patent US20240115554A1, “METHODS FOR TREATING OBSTRUCTIVE HYPERTROPHIC CARDIOMYOPATHY” (Cytokinetics, Incorporated, priority 2022, published 2024).
# Entries after “also recorded” stand apart in the source; their conditions may differ.
# Key:
# Format in all cases: in vivo, human
# [1] = tested on: patients with symptomatic oHCM; assay: Open-label extension: echocardiography (LVOT-G, LVEF)
# Description: Patients were up-titrated to Dose 2 if either of the following conditions were met on echocardiography: (1) resting LVOT-G ≥30 mmHg and the biplane LVEF ≥50%; or (2) resting LVOT-G <30 mmHg, post-Valsalva LVOT-G ≥50 mmHg, and the biplane LVEF ≥50%. […] If LVEF was <50%, treatment was discontinued. If LVEF was <40%, treatment is interrupted.
# Ambulatory cardiac monitoring is performed on weeks 48, 96, 144, 192 and 240. Cardiac magnetic resonance is monitored at weeks 48, 144 and 240. (See FIG. 26).
# At Week 2, each patient has a truncated echocardiogram following administration of their dose. Patients are up-titrated to Dose 2 if post-Valsalva LVOT-G ≥30 mmHg, and the biplane LVEF ≥55%. […] If LVEF is <50%, treatment is discontinued.
# At Weeks 4, 6, 12, and every 12 weeks thereafter, each patient has an echocardiogram or truncated echocardiogram following administration of their dose (a truncated echocardiogram at weeks 4 and 6; and an echocardiogram at week 12 and every 12 weeks thereafter) to determine whether additional dose titration is needed (see Table 21 and Table 22). Patient reported outcomes, laboratory assessments, measurements of NT-proBNP, hs-cTnI, and other biomarkers are performed at week 12 and every 12 weeks thereafter. Ambulatory cardiac monitoring is performed on weeks 48, 96, 144, 192 and 240 Cardiac magnetic resonance is monitored at weeks 48, 144 and 240. If a patient develops an LVEF <40% after the Week 2 visit, a repeat echocardiogram may be performed to confirm the initial finding (preferably within 24 hours). If the echocardiography findings are confirmed, the patient will undergo a ≥2-day drug holiday.
# Echocardiographic parameters to be measured at least include the left ventricular parameters (resting left ventricular outflow tract pressure gradient (LVOT-G), post-Valsalva LVOT-G, LVEF, LVFS, left ventricular strain, left ventricular end diastolic volume (LVEDV), left ventricular end systolic volume (LVESV), LV Stroke Volume), septal and free wall thickness, E/e′, E/A, LA volume.
# [2] = tested on: patients with symptomatic oHCM; assay: Open-label extension: Kansas City Cardiomyopathy Questionnaire (KCCQ)
# Description: Change in KCCQ scores from baseline, including OSS=overall summary score, CSS=clinical summary score, TSS=total symptom score, PLS=physical limitation score, SLS=social limitation score, QoL=quality of life, were determined. Patients were categorized with worsened (≤−5 points), unchanged (−5 to <5 points), small improvement (5 to <10 points), moderate to large improvement (10 to <20 points), and large to very large improvement (≥20 points) relative to baseline.
# [3] = tested on: patients with symptomatic oHCM; assay: Open-label extension: SRT eligibility per guideline criteria; conditions: Week 48 visit; 19 patients (42%) eligible at baseline
# Source text: There was a substantial reduction in peak resting and Valsalva LVOT-G from baseline to week 48 [ΔResting mean: −32 mmHg (±28); Δ Valsalva mean: −47 mmHg (±28)] (see FIG. 53 and FIG. 54, respectively). […] There was substantial improvement in NYHA class: by week 48, 88% of patients experienced ≥1 NYHA FC improvement while none had NYHA FC worsening (see FIG. 56). At baseline, 19 patients (42%) were eligible for SRT per guideline criteria of symptoms and hemodynamics, despite receiving beta-blocker, (78%) calcium channel blocker (18%), and disopyramide (22%). […] NT pro-BNP decreased from baseline to Week 48 (from a geometric mean [CV %] of 651.0 [160.4] to 111.1 [93.4] pg/mL), representing a […] reduction from baseline (p<0.0001).
compound,measurement,setting,value
"CCc1nc(-c2ccc3c(c2)CC[C@H]3NC(=O)c2cnn(C)c2)no1 [aficamten, (R)—N-(5-(5-ethyl-1,2,4-oxadiazol-3-yl)-2,3-dihydro-1H-inden-1-yl)-1-methyl-1H-pyrazole-4-carboxamide]",reduction in LVOT gradients over time,"[1]; Weeks 2-24, site reads, Example 3a",significant and sustained reductions in LVOT gradients
same,Δ LVEF,[1]; baseline to week 48,−5±3%
same,Δ Valsalva LVOT-G mean,[1]; baseline to week 48,−47 mmHg
same,ΔResting LVOT-G mean,[1]; baseline to week 48,−32 mmHg
same,reductions in LVEF over time,"[1]; through Week 24, Example 3a",minimal and stable reductions in LVEF
same,participants with clinically-important improvement (5 points on the KCCQ Overall Summary Score),[2]; Week 12,72.7%
same,participants with very large clinical improvements in KCCQ,[2]; Week 12,36.4%
same,participants with clinically-important improvement (5 points on the KCCQ Overall Summary Score),[2]; Week 24,72.0%
same,participants with very large clinical improvements in KCCQ,[2]; Week 24,40.0%
same,improvement in KCCQ domain scores,[2]; up to 6 months,marked and sustained improvement in all KCCQ domain scores
same,patients eligible for SRT per guideline criteria,[3],none of these patients met these criteria; also recorded: eliminated SRT eligibility in all patients
